Experiments:
Test in all cases: relative viability (nuclei count vs DMSO), 5 days (fraction); higher = more cells survive
Afatinib + Luminespib = compound: CN(C)C/C=C/C(=O)Nc1cc2c(Nc3ccc(F)c(Cl)c3)ncnc2cc1O[C@H]1CCOC1 [Afatinib] + CCNC(=O)c1noc(-c2cc(C(C)C)c(O)cc2O)c1-c1ccc(CN2CCOCC2)cc1 [Luminespib] (partner 0.01 µM)
Outline: (§1)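 Lung cancer cell lines, seeded in 1536-well plates, were treated the following day by pin tool with a single drug or with five library-drug doses (not always all listed) in √10 steps on top of a fixed anchor-drug dose. Cells were fixed and nuclei stained in one step after 5 days, and nuclei were counted. Relative viability is the nuclei count for treated wells divided by that for vehicle wells, reported as medians of duplicate plates.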

Afatinib + Bortezomib = compound: CN(C)C/C=C/C(=O)Nc1cc2c(Nc3ccc(F)c(Cl)c3)ncnc2cc1O[C@H]1CCOC1 [Afatinib] + CC(C)C[C@H](NC(=O)[C@H](Cc1ccccc1)NC(=O)c1cnccn1)B(O)O [Bortezomib] (partner 0.002 µM)
Outline: as §1

Afatinib + Dasatinib = compound: CN(C)C/C=C/C(=O)Nc1cc2c(Nc3ccc(F)c(Cl)c3)ncnc2cc1O[C@H]1CCOC1 [Afatinib] + Cc1nc(Nc2ncc(C(=O)Nc3c(C)cccc3Cl)s2)cc(N2CCN(CCO)CC2)n1 [Dasatinib] (partner 0.075 µM)
Outline: as §1

Afatinib + Palbociclib = compound: CN(C)C/C=C/C(=O)Nc1cc2c(Nc3ccc(F)c(Cl)c3)ncnc2cc1O[C@H]1CCOC1 [Afatinib] + CC(=O)c1c(C)c2cnc(Nc3ccc(N4CCNCC4)cn3)nc2n(C2CCCC2)c1=O [Palbociclib] (partner 0.5 µM)
Outline: as §1

Cell Line	relative viability (Afatinib + Luminespib; first compound 0.005 µM)	relative viability (Afatinib + Luminespib; first compound 0.01581 µM)	relative viability (Afatinib + Luminespib; first compound 0.05 µM)	relative viability (Afatinib + Luminespib; first compound 0.1581 µM)	relative viability (Afatinib + Luminespib; first compound 0.5 µM)	relative viability (Afatinib + Bortezomib; first compound 0.005 µM)	relative viability (Afatinib + Bortezomib; first compound 0.01581 µM)	relative viability (Afatinib + Bortezomib; first compound 0.05 µM)	relative viability (Afatinib + Bortezomib; first compound 0.1581 µM)	relative viability (Afatinib + Bortezomib; first compound 0.5 µM)	relative viability (Afatinib + Dasatinib; first compound 0.005 µM)	relative viability (Afatinib + Dasatinib; first compound 0.01581 µM)	relative viability (Afatinib + Dasatinib; first compound 0.05 µM)	relative viability (Afatinib + Dasatinib; first compound 0.1581 µM)	relative viability (Afatinib + Dasatinib; first compound 0.5 µM)	relative viability (Afatinib + Palbociclib; first compound 0.005 µM)	relative viability (Afatinib + Palbociclib; first compound 0.01581 µM)	relative viability (Afatinib + Palbociclib; first compound 0.05 µM)	relative viability (Afatinib + Palbociclib; first compound 0.1581 µM)	relative viability (Afatinib + Palbociclib; first compound 0.5 µM)
NCI-H661	0.994	0.895	0.867	0.674	0.629	0.877	0.751	0.662	0.444	0.415	0.858	0.527	0.375	0.341	0.332	0.387	0.339	0.347	0.34	0.337
NCI-H1993	0.752	0.557	0.58	0.549	0.571	0.891	0.633	0.678	0.692	0.706	0.459	0.561	0.585	0.729	0.576	0.532	0.571	0.539	0.538	0.577
NCI-H1437	1.2	1.14	1.23	1.07	1.12	0.941	0.52	0.446	0.496	0.554	0.464	0.408	0.403	0.372	0.352	0.305	0.294	0.281	0.31	0.341
UMC-11	1.03	1.08	1.06	1.01	0.944	0.998	0.735	0.667	0.669	0.777	0.657	0.439	0.436	0.419	0.419	0.355	0.325	0.283	0.308	0.325
201T	1.01	1.02	1.03	0.975	1.03	1.09	0.921	1.02	1.07	1.13	0.589	0.517	0.581	0.56	0.544	0.336	0.346	0.354	0.358	0.339
ChaGo-K-1	0.688	0.652	0.566	0.499	0.579	1.18	0.92	0.8	0.924	1.07	0.631	0.52	0.535	0.65	0.541	0.932	0.977	0.977	0.864	0.96
NCI-H1650	0.181		0.188	0.164	0.224	0.222		0.204	0.241	0.207	0.295		0.307	0.264	0.28	0.299	0.257	0.305	0.347	0.269
LOU-NH91	0.319	0.295	0.325	0.326	0.311	0.465	0.416	0.48	0.519	0.502	0.399	0.421	0.486	0.424	0.4	0.533	0.535	0.538	0.564	0.538

From the supplement of paper PMC10307832
